According to patent US10550163B2 (The Regents of the University of California, priority 2014, dated 2020):

Experiments:
[1] = system: I/R-injured mouse hearts; experiment: Langendorff ischemia/reperfusion injury of isolated mouse hearts, post-conditioning (peptide at reperfusion); infarct size by TTC; set-up: species or system mouse (C57BL/6J); settings: isolated C57BL6 hearts, peptide 1.47 nmol/L during 60 min reperfusion after 20 min ischemia, Control I/R 37.6±1.3%, Mean±SEM
Procedure: Hearts of C57BL6 mice were freshly isolated and subject to ischemia reperfusion (I/R) injury using a Langendorff perfusion system. Hearts were pre-perfused with Krebs-Henseleit buffer for 40 minutes, and then I/R injury was consistently produced by subjecting the hearts to 20 minutes of normo-thermic ischemia, followed by reperfusion for 60 minutes with or without peptide fragment V1, V2, or V3 at the same molar concentration of 1.47 nmol/L. Sections of hearts were stained with 2,3,5-TTC and infarct area calculated as % of risk area.
Post-conditioning I/R experiments were performed as illustrated in FIG. 4A. Different peptide fragments V1-9aa, V2-10aa, V3-16aa, and V3-11aa were used at the same molar concentration of 1.47 nmol/L. Sections of hearts were stained with 2,3,5-TTC and infarct area calculated as % of risk area.
Male C57BL/6J mice (8-12 weeks old) were obtained from the Charles River Laboratories (Wilmington, Mass., USA). After anesthetized with intraperitoneal pentobarbitone (60 mg/kg), mouse hearts were harvested immediately and the aortas were cannulated with a 20-gauge stainless steel blunt needle and transferred to the Langendorff rig and perfused retrograde instantly with modified Krebs-Henseleit buffer (KHB) […] as previously described. See Bouhidel et al. Front Biosci (Landmark Ed) 2014; 19:566-570, and Zhang et al., J Mol Cell Cardiol. 2010; 48:1060-1070. […] Hearts were then harvested for analyses of infarct size. For post-conditioning treatment with peptide fragments, hearts underwent 40 minutes of KHB perfusion, 20 minutes of global ischemia, and a 60 minute reperfusion with different peptide fragments.
At the end of I/R protocol, hearts were sliced perpendicular to the long-axis of the heart at 1 mm intervals and stained with 1% triphenyl tetrazolium chloride (TTC) in PBS for 10 minutes at room temperature. After washing with PBS once, sections of the hearts will be fixed in 10% formalin overnight. […] Infarct size is expressed as an infarct-to-risk zone ratio (the risk zone is the whole ventricular volume in this global ischemic model).

[2] = system: endothelial cell NO production; experiment: Endothelial cell nitric oxide production by electron spin resonance (ESR); assay type: cell-based, bovine; settings: endothelial cells, 37° C., 60 minutes, Mean±SEM
Procedure: (§1) Confluent endothelial cells were incubated with different peptide fragments V1-9aa, V2-10aa, and V3-11aa at the same molar concentration of 1.47 nmol/L at 37° C. for 60 minutes in modified Krebs/HEPEs buffer containing the NO-specific spin trap Fe^2+(DETC)2. Cells were then gently collected for analysis of NO production by using electron spin resonance (ESR).
as §1, with “different combination of” for “different”, “V1-9aa alone, V1-9aa+V2-10aa (1:1), V1-9aa+V3-11aa (1:1),” for “V1-9aa, V2-10aa,”, “V2-10aa+V3-11aa (1:1)” for “V3-11aa”, “same total” for “same”
To further identify the synergistic effects peptide fragments according to the present invention, endothelial cells were treated with different combinations of peptide fragments. The treatment groups were: V1-9aa+V2-10aa group, V1-9aa+V3-11aa group, and V2-10aa+V3-11aa group. The amount of each peptide fragment was 50% of the total amount by molar concentration (or equal volume at the same molar concentration) of peptide fragments in the composition, and the final molar concentration was 1.47 nmol/L. Control group (no peptide treatment) and V1-9aa group (1.47 nmol/L) were used to compare with the combination groups. The results, shown in FIG. 7, indicate that the V1-9aa+V2-10aa group produced more NO than the V1-9aa group (V1-9aa+V2-10aa: 1.90±0.50 fold vs. V1-9aa: 1.42±0.18 fold, p<0.05).
Bovine aortic endothelial cells (BAECs, Cell Systems, Kirkland, Wash., USA) were cultured in media 199 containing 10% fetal bovine serum (FBS) as previously described. See Chalupsky & Cai, PNAS USA 2005; 102:9056-9061; and Nguyen & Cai, PNAS USA 2006; 103:6530-6535.

[3] = single peptide 1.47 nmol/L, ESR (FIG. 6)

Substance	infarct size (infarct area as % of risk area) [1]	NO production, fold vs. control [2, 3]	NO production, fold vs. control ([2]; combination experiment (FIG. 7), 1:1, total 1.47 nmol/L, ESR)
V3-11aa: SEQ ID NO: 6, residues 423-433 of human netrin-1: CPCKDGVTGIT (listed as Homo sapiens)	16.7±3.0%	1.45±0.11 fold	
V2-10aa: SEQ ID NO: 5, residues 368-377 of human netrin-1: CLNCRHNTAG (listed as Homo sapiens)	18.6±1.7%	1.44±0.08 fold	
V1-9aa: SEQ ID NO: 4, residues 304-312 of human netrin-1: CDCRHNTAG (listed as Homo sapiens)	16.8±2.2%	1.50±0.09 fold	1.42±0.18 fold
